Assay results: US20240239806A1, “COMPOUNDS, COMPOSITIONS AND METHODS OF TREATING DISORDERS” (Chengdu Anticancer Bioscience, Ltd., priority 2021, published 2024)
Read-outs that look alike come from different tables or passages of the source.

Columns and labels:
Format in all cases: cell-based
T2 HCC [1] = assay: MECP in cancer cell line; conditions: Mus musculus
Procedure: (§1) Six lung cancer cell lines (NCI-H23, NCI-H460, NCI-H596, NCI-H2170, Calu-6 and A549), two colon cancer cell lines (HCT116 and SW460), one breast cancer cell line MDA-MB-231, one gastric cancer cell line NCI-N87, one prostate cancer cell line DU145, one cervical cancer cell line Hela, and one glioblastoma cell line T98G were obtained from ATCC. The T2 HCC cell line was derived from a mouse liver cancer model initiated by a transgene of MYC. All cell lines were cultured in DMEM (Gibco, Cleveland, TN, USA) supplemented with 5% fetal bovine serum (Gibco), penicillin (100 U/mL)—streptomycin (100 μg/mL) (Gibco, Cat. No. 15140-122), 2 mM L-glutamine (Gibco, 200 mM solution, Cat. No. 25030081), and 1 mM sodium pyruvate (Gibco, 100 mM solution, Cat. No. 11360070) at 37° C. in a humidified incubator that was maintained at 5% CO2.
(§2) We have previously developed a mechanism-informed phenotypic screening assay to identify novel antimitotic agents. Equipped with a prior understanding of the versatile functions of the chromosomal passenger protein (CPP) complex in orchestrating karyokinesis and cytokinesis, the screening assay is to score for phenotypes typically seen when the CPP complex is disabled. Specifically, the parameters for a positive hit are a temporary elevation of mitotic index (MI) at 24 hours of drug treatment and an accumulation of polyploid cells at 48 hours of drug treatment, indicative of mitotic arrest and cytokinetic failure respectively. These parameters exclude compounds that elicit only a prolonged arrest of cells in mitosis, a phenotype typically provoked by spindle toxins. The screening procedure is briefly summarized here. RPEMYC^H2B-GFP cells engineered to express a Histone 2B-EGFP fusion protein were passaged as batches of 96-well plates, 18-24 hours before exposure to the chemical compounds of the present disclosure at concentrations from 1 nM to 30 μM. At 24, 48 or 72 hours after initiation of treatment, cells were analyzed for either an arrest in mitosis or a change in DNA content by GE IN-Cell Analyzer 2000. As set forth in Table 2 below, a value of greater than or equal to 1 nM and less than or equal to 1.0 μM is marked “A”; a value greater than 1.00 μM and less than or equal to 10.0 μM is marked “B”; a value greater than 10.0 μM and less than or equal to 30.0 μM is marked “C”; and a value greater than 30.0 μM is marked “D.”

Hela [2] = assay: MECP in cancer cell line; conditions: Homo sapiens
Procedure: as §1, §2

A549 [3] = assay: MECP in cancer cell line; conditions: Homo sapiens
Procedure: as §1, §2

MDA-MB-231 [4] = assay: MECP in cancer cell line; conditions: Homo sapiens
Procedure: as §1, §2

SW480 [5] = assay: MECP in cancer cell line; conditions: Homo sapiens
Procedure: as §1, §2

HCT116 [6] = assay: MECP in cancer cell line; conditions: Homo sapiens, HCT-116
Procedure: as §1, §2

T2 HCC [7] = assay: MTT assay of cellular proliferation; conditions: Mus musculus, 50% inhibition of cellular proliferation
Procedure: as §1
(§3) The MTT assay measures cellular metabolic activity as a proxy for cell viability and involves the conversion of the water-soluble yellow dye MTT [3-(4,5-dimethylthiazol-2-yl)-2,5-diphenyltetrazolium bromide] into an insoluble purple formazan by the action of mitochondrial reductase. Formazan is then solubilized and its concentration is determined by measuring the optical density (OD) value at a wavelength of 570 nm. The value is in proportional to the number of live cells with excellent linearity up to ˜10^6 cells per well. The MTT assay was used to determine the EC50 value, the concentration of a compound that leads to 50% inhibition of cellular proliferation. Briefly, cells were split when growing to the mid-Log phase. Cells in 100 μL of culture medium were seeded into each well of 96-well microplates and cultivated for 15-24 hours to reach a confluence of 20-30% and were then exposed to drugs at concentrations ranging from 1 nM to 30 μM. At the endpoint, 20 μL of a MTT stock solution in DMSO (5 mg/mL) was added to each well that contains 100 μL of DMEM. The microplates were left in the cell culture incubator for 3-4 h before subjected to solubilization and determination of formazan at A570 in a microplate reader (BioTek ELX808iu). […] Therefore, these compounds might hold a broad utility in the treatment of a large variety of human malignancies.

NCI-N87 [8] = assay: MTT assay of cellular proliferation; conditions: Homo sapiens, 50% inhibition of cellular proliferation
Procedure: as §1, §3

Hela [9] = assay: MTT assay of cellular proliferation; conditions: Homo sapiens, 50% inhibition of cellular proliferation
Procedure: as §1, §3

A549 [10] = assay: MTT assay of cellular proliferation; conditions: Homo sapiens, 50% inhibition of cellular proliferation
Procedure: as §1, §3

MDA-MB-231 [11] = assay: MTT assay of cellular proliferation; conditions: Homo sapiens; MDA-MB-231, MTT, 50% inhibition of cellular proliferation
Procedure: as §1, §3

SW480 [12] = assay: MTT assay of cellular proliferation; conditions: Homo sapiens, 50% inhibition of cellular proliferation
Procedure: as §1, §3

NCI-H23 [13] = assay: MTT assay of cellular proliferation; conditions: Homo sapiens, 50% inhibition of cellular proliferation
Procedure: as §1, §3

HCT116 [14] = assay: MTT assay of cellular proliferation; conditions: Homo sapiens, HCT-116, 50% inhibition of cellular proliferation
Procedure: as §1, §3

RPEMYC^H2B-GFP cells = assay: Phenotypic screening assay (mitotic arrest, polyploidy); conditions: 1 nM to 30 μM; for IC50: read-out: Proliferative arrest (>50%)
Procedure: as §2

NCI-N87 [15] = assay: MECP in cancer cell line; conditions: Homo sapiens
Procedure: as §1, with “CO2. […]” for “CO2.”

NCI-H23 [16] = assay: MECP in cancer cell line; conditions: Homo sapiens
Procedure: as §1, with “CO2. […]” for “CO2.”

[17] = read-out: Min. Effective conc. for Polyploidy (≥5%)

Row | EC50 (T2 HCC [7]) [nM] | EC50 (Hela [9]) [nM] | EC50 (A549 [10]) [nM] | EC50 (MDA-MB-231 [11]) [nM] | EC50 (SW480 [12]) [nM] | EC50 (NCI-H23 [13]) [nM] | EC50 (HCT116 [14]) [nM] | SMILES | minimal effective concentration (T2 HCC [1]) [µM] | minimal effective concentration (Hela [2]) [µM] | minimal effective concentration (A549 [3]) [µM] | minimal effective concentration (MDA-MB-231 [4]) [µM] | minimal effective concentration (SW480 [5]) [µM] | minimal effective concentration (HCT116 [6]) [µM] | EC50 (NCI-N87 [8]) [nM] | minimal effective concentration (RPEMYC^H2B-GFP cells; [17]) [µM] | minimal effective concentration (RPEMYC^H2B-GFP cells; read-out: Mitotic Arrest (≥5%)) [µM] | IC50 (RPEMYC^H2B-GFP cells) [nM] | minimal effective concentration (NCI-N87 [15]) [µM] | minimal effective concentration (NCI-H23 [16]) [µM] | further results
1 | 1 to 1000 | 1 to 1000 | 1 to 1000 | 1 to 1000 | 1 to 1000 | 1 to 1000 | 1 to 1000 | COc1cc(Oc2ccnc3ccccc23)cc(-n2cccn2)c1 [Compound 12, 4-(3-methoxy-5-(1H-pyrazol-1-yl)phenoxy)quinoline] | 0.001 to 1 | 0.001 to 1 | 0.001 to 1 | 0.001 to 1 | 0.001 to 1 | 0.001 to 1 | 1 to 1000 | 0.001 to 1 | 0.001 to 1 | 1 to 1000 | 0.001 to 1 | 0.001 to 1 | 
2 | 1 to 1000 | 1 to 1000 | 1 to 1000 | 1 to 1000 | 1 to 1000 | 1 to 1000 | 1 to 1000 | COc1cc(NC(C)=O)cc(Oc2ccnc3ccccc23)c1 [Compound 14, N-(3-methoxy-5-(quinolin-4-yloxy)phenyl)acetamide] | 0.001 to 1 | 0.001 to 1 | 0.001 to 1 | 0.001 to 1 | 0.001 to 1 | 0.001 to 1 | 1 to 1000 | 0.001 to 1 | 0.001 to 1 | 1 to 1000 | 0.001 to 1 | 0.001 to 1 | 
3 | 1 to 1000 | 1 to 1000 | 1 to 1000 | 1 to 1000 | 1 to 1000 | 1 to 1000 | 1 to 1000 | COc1cc(NC(C)=O)cc(Oc2ccnc3ccc(OC)cc23)c1 [Compound 18, N-(3-methoxy-5-((6-methoxyquinolin-4-yl)oxy)phenyl)acetamide] | 0.001 to 1 | 0.001 to 1 | 0.001 to 1 | 0.001 to 1 | 0.001 to 1 | 0.001 to 1 | 1 to 1000 | 0.001 to 1 | 0.001 to 1 | 1 to 1000 | 0.001 to 1 | 0.001 to 1 | 
4 |  |  |  |  |  |  |  | COc1cc(Oc2ccnc3ccc(Br)cc23)cc(OC2CCOC2)c1 (stereo not shown) [Compound 92, 6-bromo-4-(3-methoxy-5-((tetrahydrofuran-3-yl)oxy)phenoxy)quinoline] |  |  |  |  |  |  |  | 0.001 to 1 | 0.001 to 1 |  |  |  | 
5 |  |  |  |  |  |  |  | COc1cc(Oc2ccnc3ccc(Br)cc23)cc([N+](=O)[O-])c1 [Compound 93, 4-(3-methoxy-5-nitrophenoxy)-6-bromoquinone] |  |  |  |  |  |  |  | 0.001 to 1 | 0.001 to 1 |  |  |  | 
6 |  |  |  |  |  |  |  | COc1cc(Oc2cc(C)nc3ccccc23)cc(-n2cccn2)c1 [Compound 96, 4-(3-methoxy-5-(1H-pyrazol-1-yl)phenoxy)-2-methylquinoline] |  |  |  |  |  |  |  | 0.001 to 1 | 0.001 to 1 |  |  |  | 
7 |  |  |  |  |  |  |  | COc1cc(Oc2cc(Cl)nc3ccc(Br)cc23)cc([N+](=O)[O-])c1 [Compound 97, 4-(3-methoxy-5-nitrophenoxy)-6-bromo-2-chloroquinoline] |  |  |  |  |  |  |  | > 30 | > 30 |  |  |  | 
8 |  |  |  |  |  |  |  | [2H]c1cc(Oc2cc(OC)cc([N+](=O)[O-])c2)c2cc(Br)ccc2n1 [Compound 98] |  |  |  |  |  |  |  | 1 to 10 | 1 to 10 |  |  |  | 
9 |  |  |  |  |  |  |  | COC(=O)c1cc(OC)cc(Oc2ncnc3cc(OC)c(OC)cc23)c1 [Example 24, methyl 3-((6,7-dimethoxyquinazolin-4-yl)oxy)-5-methoxybenzoate] |  |  |  |  |  |  |  |  |  |  |  |  | Along with Cell Death (RPEMYC^H2B-GFP cells): C (a value greater than 10.0 μM and less than or equal to 30.0 μM); Min. Effective conc. for Polyploidy (≥5%) (RPEMYC^H2B-GFP cells): C (a value greater than 10.0 μM and less than or equal to 30.0 μM); Mitotic Arrest (≥5%) (RPEMYC^H2B-GFP cells): C (a value greater than 10.0 μM and less than or equal to 30.0 μM); Proliferative arrest (>50%) (RPEMYC^H2B-GFP cells): C (a value greater than 10.0 μM and less than or equal to 30.0 μM)

Row | SMILES | EC50 (T2 HCC [7]) [nM] | EC50 (Hela [9]) [nM] | EC50 (A549 [10]) [nM] | EC50 (MDA-MB-231 [11]) [nM] | EC50 (SW480 [12]) [nM] | EC50 (NCI-H23 [13]) [nM] | EC50 (HCT116 [14]) [nM] | minimal effective concentration (T2 HCC [1]) [µM] | minimal effective concentration (Hela [2]) [µM] | minimal effective concentration (A549 [3]) [µM] | minimal effective concentration (MDA-MB-231 [4]) [µM] | minimal effective concentration (SW480 [5]) [µM] | minimal effective concentration (HCT116 [6]) [µM] | EC50 (NCI-N87 [8]) [nM] | minimal effective concentration (RPEMYC^H2B-GFP cells; [17]) [µM] | minimal effective concentration (RPEMYC^H2B-GFP cells; read-out: Mitotic Arrest (≥5%)) [µM] | IC50 (RPEMYC^H2B-GFP cells) [nM] | minimal effective concentration (NCI-N87 [15]) [µM] | minimal effective concentration (NCI-H23 [16]) [µM] | further results
10 | COc1cc(Oc2ccnc3ccc(OC)cc23)cc(-n2cccn2)c1 [Compound 17, 6-methoxy-4(3-methoxy-5-(1H-pyrazol-1-yl)phenoxy)quinoline] | 1 to 1000 | 1 to 1000 | 1 to 1000 | 1 to 1000 | 1 to 1000 | 1 to 1000 | 1 to 1000 | 0.001 to 1 | 0.001 to 1 | 0.001 to 1 | 0.001 to 1 | 0.001 to 1 | 0.001 to 1 | 1 to 1000 | 0.001 to 1 | 0.001 to 1 | 1 to 1000 | 0.001 to 1 | 0.001 to 1 | Min. Effective conc. for Polyploidy (≥5%) (RPEMYC^H2B-GFP cells): B (a value greater than 1.00 μM and less than or equal to 10.0 μM); Mitotic Arrest (≥5%) (RPEMYC^H2B-GFP cells): B (a value greater than 1.00 μM and less than or equal to 10.0 μM); Proliferative arrest (>50%) (RPEMYC^H2B-GFP cells): B (a value greater than 1.00 μM and less than or equal to 10.0 μM); Along with Cell Death (RPEMYC^H2B-GFP cells; listed as 16): B (a value greater than 1.00 μM and less than or equal to 10.0 μM)
